Patent US4486441A, “Pseudotropyl halogeno-benzoates and their use in migraine treatment” (Merrell Toraude Et Compagnie, priority 1982, dated 1984)
Read-outs that look alike come from different tables or passages of the source.

Assays:
[1] = target: T1, 5-HT M-receptor (Oryctolagus cuniculus, UniProt A0A5F9C9J3); assay: pA2 against 5-HT in the isolated rabbit heart
T1 construct: determining their pA2 values in the isolated rabbit heart; from tissue; host or cells: isolated rabbit heart
T1 sequence (A0A5F9C9J3 1-494): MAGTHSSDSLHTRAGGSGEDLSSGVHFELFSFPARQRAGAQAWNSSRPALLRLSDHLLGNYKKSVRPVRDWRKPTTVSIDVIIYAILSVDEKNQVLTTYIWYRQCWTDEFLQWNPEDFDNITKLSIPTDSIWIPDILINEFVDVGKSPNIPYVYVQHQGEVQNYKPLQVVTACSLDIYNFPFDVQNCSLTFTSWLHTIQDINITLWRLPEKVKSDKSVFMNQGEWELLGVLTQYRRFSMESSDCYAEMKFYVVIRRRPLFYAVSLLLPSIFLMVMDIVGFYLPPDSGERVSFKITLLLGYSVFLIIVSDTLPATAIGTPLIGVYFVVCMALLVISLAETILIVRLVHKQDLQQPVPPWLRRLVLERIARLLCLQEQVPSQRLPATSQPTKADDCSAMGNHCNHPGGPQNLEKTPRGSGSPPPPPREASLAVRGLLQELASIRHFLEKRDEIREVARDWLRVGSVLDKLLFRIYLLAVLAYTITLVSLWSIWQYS
Method: The activity of the compounds against 5-HT can be assessed by determining their pA2 values in the isolated rabbit heart as described by Fozard et at Europ. J. Pharmacol. 59, 195-210 (1979). In the method described the molar concentration of antagonist which reduces the effects of twice the ED50 of 5-HT to that of the ED50 in the absence of antagonist is determined. The pA2 value is the negative logarithm of said molar concentrations.

[2] = target: T1, 5-HT M-receptor; settings: potency as 5-HT M-receptor antagonist; values reported by Fozard et al, Eur. J. Pharmacol. 59(1979) and 49(1978); cited from earlier work
[3] = potency as 5-HT M-receptor antagonist, tests mentioned in the background section, read-out: pA2 (converted)

`COc1cc(OC)cc(C(=O)O[C@@H]2C[C@H]3CC[C@@H](C2)N3C)c1` [pseudotropyl-3,5-dimethoxybenzoate] showed a Kb [1, 3] of 0.251 µM.

For `CN1[C@@H]2CC[C@H]1C[C@H](OC(=O)c1ccccc1)C2` [pseudotropyl benzoate], the pA2 [2] is given as 7.0.

Molecule `CN1[C@@H]2CC[C@H]1C[C@H](OC(=O)c1cc(Cl)cc(Cl)c1)C2` [Example 1, Pseudotropyl 3,5-Dichlorobenzoate (i.e. 3,5-Dichlorobenzoic Acid Exo-8-Methyl-8-Azabicyclo[3,2,1]Oct-3-Yl Ester)] has a Kb ([1]; isolated rabbit heart, antagonism of 5-HT, read-out: pA2 (5-HT) (converted)) of 0.00251 µM.

Work on `COc1cc(C(=O)O[C@@H]2C[C@H]3CC[C@@H](C2)N3C)cc(OC)c1OC` [pseudotropyl-3,4,5-trimethoxybenzoate] yielded a Kb [1, 3] of 2 µM.

In the case of `CN1[C@@H]2CC[C@H]1C[C@@H](OC(=O)c1ccccc1)C2` [benzoyltropine], the pA2 [2] is given as 7.2.
